Data published in PMC9154192 (PLoS Biology, 2022).
Where two headings read alike, the source gives them in different places.

Type: in vivo, SD rats
Settings: for Adrenal gland: Vacuolation, cortical, diffuse, Grade 1, no. of animals / Adrenal gland: Vacuolation, cortical, diffuse, Grade 2, no. of animals / Epididymis: Infiltrate, inflammatory cell, interstitum, Grade 1, no. of animals / Eye: Dysplasia, retina, focal, Grade 1, no. of animals / Harderian gland: Infiltrate, inflammatory cell, focal, Grade 1, no. of animals / Kidney: Basophilia, tubule, cortex, Grade 1, no. of animals / Kidney: Cast, hyaline, cortex, Grade 1, no. of animals / Kidney: Hydronephrosis, unilateral, Grade 3, no. of animals / Kidney: Infiltrate, inflammatory cell, interstitium, Grade 1, no. of animals / Kidney: Infiltrate, inflammatory cell, interstitium, Grade 2, no. of animals / Kidney: Mineralization, cortex, Grade 1, no. of animals / Kidney: Mineralization, corticomedullary junction, Grade 1, no. of animals / Kidney: Mineralization, medulla, Grade 1, no. of animals / Liver: Extramedullary hematopoiesis, Grade 1, no. of animals / Liver: Fatty change, sporadic/periportal, Grade 1, no. of animals / Liver: Fatty change, sporadic/periportal, Grade 2, no. of animals / Liver: Infiltrate, mononuclear cell, focal, Grade 1, no. of animals / Liver: Infiltrate, mononuclear cell, focal, Grade 2, no. of animals / Lung including bronchi: Alveolar macrophage aggregation, focal, Grade 1, no. of animals / Lung including bronchi: Infiltrate, mononuclear cell, alveolar, focal, Grade 1, no. of animals / Pituitary gland: Cyst, pars nervosa, Presence, no. of animals / Prostate: Infiltrate, inflammatory cell, interstitium, Grade 1, no. of animals / Salivary gland (parotid): Focus, hypertrophic, basophilic, focal, Grade 1, no. of animals / Spleen: Pigmentation, Grade 1, no. of animals / Submandibular lymph node: Increased, plasma cell, Grade 2, no. of animals / Thyroid gland: Ectopic thymus, Presence, no. of animals / Thyroid gland: Ultimobranchial cyst, Presence, no. of animals: female
Experimental: A subchronic toxicity study was performed for PP2S. Female and male rats were divided into a control group (0 mg/kg/day, n = 15), a low-dose group (167 mg/kg/day, n = 10), a medium-dose group (500 mg/kg/day, n = 10), and a high-dose group (1,500 mg/kg/day, n = 15), respectively. Thus, there were a total of 8 groups. The drug was administered by oral gavage at 10 mL/kg body weight daily for 4 weeks. Five animals each in the control and high-dose groups continued their treatments for 2 more weeks. Clinical symptoms were observed, and body weight was measured during the test period for a total of 6 weeks; 0.5% methyl cellulose 1,500 cP (Sigma, USA) in water for injection (JW Pharmaceutical, Korea) was used as a vehicle. Control animals were treated with only the same volume of the vehicle.
Histopathological examination was performed while performing a 4-week repeated oral toxicity study for PP2S. Organs and tissues from all animals subjected to autopsy were removed and fixed in 10% neutral buffered formalin. Among them, testes, eyeballs and optic nerve were fixed in Davidson's fixative and then in 10% neutral buffered formalin. For organs/tissues subjected to histopathological examination, specimens were prepared according to the histopathological specimen preparation SOP. For histopathological examination, organs and tissues of all subjects in the control group and the high-dose group, and macroscopically observed subjects in the low-dose group were examined. […] In addition, all other changes observed in histopathological examination were judged to be spontaneous or accidental. Those not specifically observed for all groups by organ were marked with a 'dash' symbol. Grade 1, minimal; Grade 2, slight; Grade 3, moderate; Grade 4, severe.

[1] = all groups (167, 500, 1,500 mg/kg; male, female; dosing and recovery period)
[2] = G2 167 mg/kg, dosing period, n=10
[3] = G3 500 mg/kg, dosing period, n=10
[4] = G4 1,500 mg/kg, dosing period, n=10
[5] = G4 1,500 mg/kg, recovery period, n=5

## CCCCOc1ccc2cc(CN3C(=O)CC[C@H]3C(=O)OC)c3cc(OC)c(OC)cc3c2c1 [PP2S, Methyl (S)-1-((3-butoxy-6,7-dimethoxyphenanthren-9-yl)methyl)-5-oxopyrrolidine-2-carboxylate]
All administration groups, 4-week repeated oral toxicity study
  histopathological change due to administration: no change was observed
[1]
  Histopathological findings: Brain: -
  Histopathological findings: Cecum: -
  Histopathological findings: Colon: -
  Histopathological findings: Duodenum: -
  Histopathological findings: Exophagus: -
  Histopathological findings: Femur including bone marrow: -
  Histopathological findings: Heart: -
  Histopathological findings: Ileum: -
  Histopathological findings: Jejunum: -
  Histopathological findings: Mammary gland (inguinal): -
  Histopathological findings: Mesenteric lymph node: -
  Histopathological findings: Optic nerve: -
  Histopathological findings: Pancreas: -
  Histopathological findings: Parathyroid gland: -
  Histopathological findings: Rectum: -
  Histopathological findings: Salivary gland (sublingual): -
  Histopathological findings: Salivary gland (submandibular): -
  Histopathological findings: Seminal vesicle: -
  Histopathological findings: Skin (inguinal): -
  Histopathological findings: Spinal cord (thoracic): -
  Histopathological findings: Sternum including bone marrow: -
  Histopathological findings: Stomach: -
  Histopathological findings: Testis: -
  Histopathological findings: Thymus: -
  Histopathological findings: Tongue: -
  Histopathological findings: Trachea: -
  Histopathological findings: Urinary bladder: -
  Histopathological findings: Uterus: -
  Histopathological findings: Vagina: -
[2]
  Adrenal gland: Vacuolation, cortical, diffuse, Grade 1, no. of animals: 0
  Adrenal gland: Vacuolation, cortical, diffuse, Grade 2, no. of animals: 0
  Epididymis: Infiltrate, inflammatory cell, interstitum, Grade 1, no. of animals: 0
  Eye: Dysplasia, retina, focal, Grade 1, no. of animals: 0
  Harderian gland: Infiltrate, inflammatory cell, focal, Grade 1, no. of animals: 0
  Kidney: Basophilia, tubule, cortex, Grade 1, no. of animals: 0
  Kidney: Cast, hyaline, cortex, Grade 1, no. of animals: 0
  Kidney: Hydronephrosis, unilateral, Grade 3, no. of animals: 0
  Kidney: Infiltrate, inflammatory cell, interstitium, Grade 1, no. of animals: 0
  Kidney: Infiltrate, inflammatory cell, interstitium, Grade 2, no. of animals: 0
  Kidney: Mineralization, cortex, Grade 1, no. of animals: 0
  Kidney: Mineralization, corticomedullary junction, Grade 1, no. of animals: 0
  Kidney: Mineralization, medulla, Grade 1, no. of animals: 0
  Liver: Extramedullary hematopoiesis, Grade 1, no. of animals: 0
  Liver: Fatty change, sporadic/periportal, Grade 1, no. of animals: 0
  Liver: Fatty change, sporadic/periportal, Grade 2, no. of animals: 0
  Liver: Infiltrate, mononuclear cell, focal, Grade 1, no. of animals: 0
  Liver: Infiltrate, mononuclear cell, focal, Grade 2, no. of animals: 0
  Lung including bronchi: Alveolar macrophage aggregation, focal, Grade 1, no. of animals: 0
  Lung including bronchi: Infiltrate, mononuclear cell, alveolar, focal, Grade 1, no. of animals: 0
  Pituitary gland: Cyst, pars nervosa, Presence, no. of animals: 0
  Prostate: Infiltrate, inflammatory cell, interstitium, Grade 1, no. of animals: 0
  Salivary gland (parotid): Focus, hypertrophic, basophilic, focal, Grade 1, no. of animals: 0
  Spleen: Pigmentation, Grade 1, no. of animals: 0
  Submandibular lymph node: Increased, plasma cell, Grade 2, no. of animals: 0
  Thyroid gland: Ectopic thymus, Presence, no. of animals: 0
  Thyroid gland: Ultimobranchial cyst, Presence, no. of animals: 0
[3]
  Adrenal gland: Vacuolation, cortical, diffuse, Grade 1, no. of animals: 0
  Adrenal gland: Vacuolation, cortical, diffuse, Grade 2, no. of animals: 0
  Epididymis: Infiltrate, inflammatory cell, interstitum, Grade 1, no. of animals: 0
  Eye: Dysplasia, retina, focal, Grade 1, no. of animals: 0
  Harderian gland: Infiltrate, inflammatory cell, focal, Grade 1, no. of animals: 0
  Kidney: Basophilia, tubule, cortex, Grade 1, no. of animals: 0
  Kidney: Cast, hyaline, cortex, Grade 1, no. of animals: 0
  Kidney: Hydronephrosis, unilateral, Grade 3, no. of animals: 0
  Kidney: Infiltrate, inflammatory cell, interstitium, Grade 1, no. of animals: 0
  Kidney: Infiltrate, inflammatory cell, interstitium, Grade 2, no. of animals: 0
  Kidney: Mineralization, cortex, Grade 1, no. of animals: 0
  Kidney: Mineralization, corticomedullary junction, Grade 1, no. of animals: 0
  Kidney: Mineralization, medulla, Grade 1, no. of animals: 0
  Liver: Extramedullary hematopoiesis, Grade 1, no. of animals: 0
  Liver: Fatty change, sporadic/periportal, Grade 1, no. of animals: 0
  Liver: Fatty change, sporadic/periportal, Grade 2, no. of animals: 0
  Liver: Infiltrate, mononuclear cell, focal, Grade 1, no. of animals: 0
  Liver: Infiltrate, mononuclear cell, focal, Grade 2, no. of animals: 0
  Lung including bronchi: Alveolar macrophage aggregation, focal, Grade 1, no. of animals: 0
  Lung including bronchi: Infiltrate, mononuclear cell, alveolar, focal, Grade 1, no. of animals: 0
  Pituitary gland: Cyst, pars nervosa, Presence, no. of animals: 0
  Prostate: Infiltrate, inflammatory cell, interstitium, Grade 1, no. of animals: 0
  Salivary gland (parotid): Focus, hypertrophic, basophilic, focal, Grade 1, no. of animals: 0
  Spleen: Pigmentation, Grade 1, no. of animals: 0
  Submandibular lymph node: Increased, plasma cell, Grade 2, no. of animals: 0
  Thyroid gland: Ectopic thymus, Presence, no. of animals: 0
  Thyroid gland: Ultimobranchial cyst, Presence, no. of animals: 0
[4]
  Adrenal gland: Vacuolation, cortical, diffuse, Grade 1, no. of animals: 0
  Adrenal gland: Vacuolation, cortical, diffuse, Grade 2, no. of animals: 0
  Epididymis: Infiltrate, inflammatory cell, interstitum, Grade 1, no. of animals: 0
  Eye: Dysplasia, retina, focal, Grade 1, no. of animals: 1
  Harderian gland: Infiltrate, inflammatory cell, focal, Grade 1, no. of animals: 0
  Kidney: Basophilia, tubule, cortex, Grade 1, no. of animals: 1
  Kidney: Cast, hyaline, cortex, Grade 1, no. of animals: 0
  Kidney: Hydronephrosis, unilateral, Grade 3, no. of animals: 1
  Kidney: Infiltrate, inflammatory cell, interstitium, Grade 1, no. of animals: 4
  Kidney: Infiltrate, inflammatory cell, interstitium, Grade 2, no. of animals: 0
  Kidney: Mineralization, cortex, Grade 1, no. of animals: 0
  Kidney: Mineralization, corticomedullary junction, Grade 1, no. of animals: 1
  Kidney: Mineralization, medulla, Grade 1, no. of animals: 0
  Liver: Extramedullary hematopoiesis, Grade 1, no. of animals: 0
  Liver: Fatty change, sporadic/periportal, Grade 1, no. of animals: 5
  Liver: Fatty change, sporadic/periportal, Grade 2, no. of animals: 1
  Liver: Infiltrate, mononuclear cell, focal, Grade 1, no. of animals: 2
  Liver: Infiltrate, mononuclear cell, focal, Grade 2, no. of animals: 2
  Lung including bronchi: Alveolar macrophage aggregation, focal, Grade 1, no. of animals: 0
  Lung including bronchi: Infiltrate, mononuclear cell, alveolar, focal, Grade 1, no. of animals: 0
  Pituitary gland: Cyst, pars nervosa, Presence, no. of animals: 0
  Prostate: Infiltrate, inflammatory cell, interstitium, Grade 1, no. of animals: 0
  Salivary gland (parotid): Focus, hypertrophic, basophilic, focal, Grade 1, no. of animals: 1
  Spleen: Pigmentation, Grade 1, no. of animals: 4
  Submandibular lymph node: Increased, plasma cell, Grade 2, no. of animals: 0
  Thyroid gland: Ectopic thymus, Presence, no. of animals: 2
  Thyroid gland: Ultimobranchial cyst, Presence, no. of animals: 4
[5]
  Adrenal gland: Vacuolation, cortical, diffuse, Grade 1, no. of animals: 0
  Adrenal gland: Vacuolation, cortical, diffuse, Grade 2, no. of animals: 0
  Epididymis: Infiltrate, inflammatory cell, interstitum, Grade 1, no. of animals: 0
  Eye: Dysplasia, retina, focal, Grade 1, no. of animals: 0
  Harderian gland: Infiltrate, inflammatory cell, focal, Grade 1, no. of animals: 0
  Kidney: Basophilia, tubule, cortex, Grade 1, no. of animals: 0
  Kidney: Cast, hyaline, cortex, Grade 1, no. of animals: 0
  Kidney: Hydronephrosis, unilateral, Grade 3, no. of animals: 0
  Kidney: Infiltrate, inflammatory cell, interstitium, Grade 1, no. of animals: 3
  Kidney: Infiltrate, inflammatory cell, interstitium, Grade 2, no. of animals: 0
  Kidney: Mineralization, cortex, Grade 1, no. of animals: 0
  Kidney: Mineralization, corticomedullary junction, Grade 1, no. of animals: 0
